From patent publication US7238524B2, “Prostate cancer cell lines” (Board of Regents of the University of Nebraska, priority 2001, dated 2007)

Tests used:
Type in all cases: cell-based, human
RPTPα = test: Western blot of RPTPα expression in butyrate-treated LNCaP cells; details: increasing concentrations of sodium butyrate, FIG. 10B
Method: (§1) FIGS. 10A and 10B show a pair of graphs illustrating the effects of sodium butyrate on LNCaP cell population (FIG. 10A) accompanied by a western blot showing resolution of NSE and RPTPα expression levels in LNCaP cells in the presence of increasing concentrations of sodium butyrate (FIG. 10B).
(§2) The regulation of RPTPα expression was then investigated in prostate cancer cells. The regulation of RPTPα expression was measured using butyrate since this pharmacological reagent induces cellular differentiation and has been utilized in the clinical trials for advanced prostate cancer therapy (29). […] This 160 kDa protein may represent an isoform of RPTPα, due to post-translational modifications (27,28).

LNCaP cells = test: Effect of butyrate on LNCaP cell growth; details: butyrate treatment, FIG. 10A
Method: as §1, §2

NSE [1] = test: Western blot of NSE expression in butyrate-treated LNCaP cells; details: increasing concentrations of sodium butyrate, FIG. 10B
Method: as §1, §2

NSE [2] = test: Induction of NE transdifferentiation (NSE expression, western blot) in LNCaP cells cultured in steroid-reduced condition; details: androgen-responsive LNCaP cells in steroid-reduced condition, FIG. 7C
From the text: (§3) FIGS. 7A-7C show three western blots. FIG. 7A is a western blot showing levels of MEK and phosphorylated MEK in LNCaP cells and three NE-like subclone cells, NE-1-3, NE-1-8 and NE-1-9. FIG. 7B is a western blot showing inhibition of ERK activation levels in the presence of the MEK inhibitor, PD098059, in NE-1-3 subclone cells. FIG. 7C is a western blot showing inhibition of NSE expression levels mediated by the MEK inhibitor, PD098059, in steroid-reduced medium.
(§4) To test the causal relationship of ERK/MAPK activation with NE-like transdifferentiation, MEKs, up-stream regulators of ERK/MAPK kinases, were examined to determine if they are also activated in the NE-like subclone cells.

ERK/MAPK = test: Western blot of ERK/MAPK activation in NE-like subclone cells with MEK inhibitor; details: NE-like subclone cells (NE-1-3), FIG. 7B
From the text: as §3, §4

| SMILES | RPTPα protein expression (RPTPα) | growth of LNCaP cells (LNCaP cells) | NSE protein expression (NSE [1]) | induction of NE transdifferentiation (NSE expression) (NSE [2]) | activation of ERK/MAPK (phosphorylated ERK) (ERK/MAPK) |
| --- | --- | --- | --- | --- | --- |
| CCCC(=O)[O-].[Na+] [Butyrate, sodium butyrate] | elevated levels | growth suppression | elevated levels |  |  |
| COc1cccc(-c2cc(=O)c3ccccc3o2)c1N [PD098059] |  |  |  | abolished | effectively inhibited |
